Laboratory results published in US11607404B2, “Combinations of RAD51 and PARP inhibitors” (Cyteir Therapeutics, Inc., priority 2019, dated 2023).
pEC50: −log10 of the molar value.

Assays:
[1] = test system: ARPE19/HPV16 (HPV Immortalized RPE); test: Cell line screen (potency assay); type: cell-based; conditions: ARPE-19, AICDA expression Negative
Method: The first step was to set up a cell killing assay in the Daudi cell line (AID positive). A 96 well u-bottom plate was prepared by writing the experiment number, plate number, date and initials in the top right corner of the plate lid. With a sterile 300 ml reservoir, and 25 ml serological pipette, evaporation buffer media was pipetted into reservoir in 25 ml increments. Using the liquid handler, 150 ul of evaporation buffer media was pipetted from reservoir into rows A and H, and Columns 1 and 12 of the 96 well u-bottom plate. Cell cultures were counted to obtain the density of cells per ml, and the culture viability. The cell density information was used to obtain 1,000,000 cells from culture using a 5 mL serological pipette into an epi tube. The cell density information from the culture was used to calculate the number of cells and volume of media needed for the assay to seed 1250 cells in 130 ul of media per available culture well in the 96 well u-bottom plate. Rows B through F were used for cells (50 wells in total), with row G left for an empty media control. The calculation was overestimated by 10 mL to account for the dead volume in the 300 ml reservoir. Once the media volume was calculated, the appropriate volume of media was pipetted in 25 mL increments into the 250 mL bottle using a 25 mL serological pipette. The 250 ml bottle was capped tightly, and placed into a 37° C. water bath for 2 minutes. While the culture media was warming, 10 mL of fresh media was pipetted from the 500 mL culture media bottle into a sterile 25 mL reservoir. Using the Eppendorf multichannel pipette, 130 ul of media was piptted from the 25 mL reservoir into row G of the 96 well u-bottom plate. Once the 250 mL bottle of media was warmed, the volume of culture needed was pipetted into the bottle, and mixed gently with a 25 mL serological pipette as to not create bubbles, and then the contents of the bottle were pipetted into a new 300 mL reservoir. Using the liquid handler, 130 ul of culture was pipetted from the 300 mL reservoir into rows B through F of the 96 well u-bottom plate. Once the culture was added, the plate was placed into a 37° C. incubator until the compound master plate was prepared for use.
Two 96 well u-bottom plates were prepared by writing the master plate name in the upper right corner of the plate lid. Labeling one DMSO master and the other Media Master. The compounds of interest were obtained from the laboratory freezer, and placed into a 25 well storage box with a lid, and set the box aside. The compounds were vortexed after thawing but before use. Using an automatic multichannel pipette, 20 ul of 100% DMSO was pipetted into wells B3-B11 through G3-G11 of the DMSO master plate. For each compound on the master plate, 50 ul of the compound were pipetted in the appropriate well of row 2 (reference plate map to determine appropriate well). A serial dilution was prepared beginning by aspirating 20 ul from row 2 and mixing with row 3, repeating until row 11 was reached. Using the liquid handler, 194 ul of Daudi media was dispensed into wells B2-B11 through G2-G11 of the Media master plate. Using the liquid handler, 6 ul from the DMSO master plate was aspirated and dispensed into the media master plate, mixing 100 ul twice.
Compounds from master plate were then added to the culture plate. The culture plates were removed from the incubator, and set inside the biosafety cabinet. Using a liquid handler, 20 ul from wells B2 to B11 through G2 to G11 of master plate were aspirated, and dispensed into wells B2 to B11 through G2 to G11 of culture plate. This set was continued with each culture plate. Once the culture plates acquired their 20 ul of compound dilutions, they were placed back into the incubator, until their reads on Day 7 of experiment. Cell death was measured on Day 7 of the experiment using Cell-Titer Glo and a Promega Plate reader. […]

[2] = Pharmacokinetic (PK) study; type: in vivo, Rat; conditions: po @ 80 mg/kg (30% PEG400, 10% Vitamin E TPGS in water)
Method: PK studies in mice were used to determine the fate of the compounds in a whole organism. Rats were treated with the compounds either orally of via IV at the indicated doses and followed for up to 24 hours. Plasma samples were taken at different time points and analyzed by LC-MS.

HBCx12B model = test: Tumor growth inhibition, subcutaneous engrafted tumor model; type: in vivo, mice; conditions: HRD Positive, RAD51 High, BRCA1 Meth, PALB2 WT, 67A 80 mg/kg QD, olaparib 100 mg/kg QD, combo both
Method: (§1) Immunodeficient mice were subcutaneously engrafted in the rear flank with the tumor cells. The tumors were allowed to grow to a size of about 100 to about 200 mm^3 prior to being randomized and grouped into treatment arms. For models […] through […] the four treatment arms were vehicle, Compound 67A at 80 mg/kg QD, olaparib at 100 mg/kg QD, and Compound 67A+Olaparib at 80 mg/kg QD and 100 mg/kg QD, respectively. For models J000101173 through TM00091 the treatment arms were vehicle, Compound 67A at 40 mg/kg QD, olaparib at 50 mg/kg QD, and Compound 67A+Olaparib at 40 mg/kg QD and 50 mg/kg QD, respectively. The tumors were measured either once weekly or twice weekly.
(§2) Percent Tumor Growth Inhibition (% TGI) was calculated by taking the mean volume of each of the treatment arms, and comparing the treatment arms to the vehicle arms using the following equation

TM01079 model = test: as above; type: in vivo, mice; conditions: HRD Positive, RAD51 Low, BRCA1 Meth, PALB2 WT, 67A 40 mg/kg QD, olaparib 50 mg/kg QD, combo both
Method: as §1, §2

J000101173 model = test: as above; type: in vivo, mice; conditions: HRD Positive, RAD51 Low, BRCA WT, PALB2 WT, 67A 40 mg/kg QD, olaparib 50 mg/kg QD, combo both
Method: as §1, §2

TM00090 model = test: as above; type: in vivo, mice; conditions: HRD Positive, RAD51 Low, BRCA1 Meth, BRCA2 Mut, PALB2 WT, 67A 40 mg/kg QD, olaparib 50 mg/kg QD, combo both
Method: as §1, §2

TM00091 model = test: as above; type: in vivo, mice; conditions: HRD Positive, RAD51 High, BRCA1 Mut, PALB2 WT, 67A 40 mg/kg QD, olaparib 50 mg/kg QD, combo both
Method: as §1, §2

HBCx17 model = test: as above; type: in vivo, mice; conditions: HRD Positive, RAD51 High, BRCA2 Mut, PALB2 WT, 67A 80 mg/kg QD, olaparib 100 mg/kg QD, combo both
Method: as §1, §2

TM000113 model = test: as above; type: in vivo, mice; conditions: HRD Negative, RAD51 Low, BRCA WT, PALB2 WT, 67A 40 mg/kg QD, olaparib 50 mg/kg QD, combo both
Method: as §1, §2

HBCx16 model = test: as above; type: in vivo, mice; conditions: HRD Positive, RAD51 High, BRCA1 Meth, PALB2 WT, 67A 80 mg/kg QD, olaparib 100 mg/kg QD, combo both
Method: as §1, §2

CC(C)OC(=O)Nc1ccc(-c2cnc([C@H]3CC[C@H](NC(=O)OC(C)C)CC3)s2)c(S(=O)(=O)NC(C)(C)C)c1 [Compound 67A, trans-isopropylN-[3-(tert-butylsulfamoyl)-4-[2-[4-(isopropoxycarbonylamino)cyclohexyl]thiazol-5-yl]phenyl]carbamate]
pEC50 [1]: < 5.00
F (%) @ 5 mg/kg ([2]; Rat Female): 86.5%
F (%) @ 5 mg/kg ([2]; Rat Male): 46.9%
% TGI (HBCx12B model): −3.27%
% TGI (TM01079 model): 26.73%
% TGI (J000101173 model): 19.87%
% TGI (TM00090 model): 51.82%
% TGI (TM00091 model): 27%
% TGI (HBCx17 model): −51.13%
% TGI (TM000113 model): 7.24%
% TGI (HBCx16 model): −22.45%
